From ChEMBL document CHEMBL1152698, “A novel class of allosteric modulators of AMPA/Kainate receptors” (Bioorg Med Chem Lett, 2009)
pEC50: −log10 of the molar value.

Key:
Rattus norvegicus = species on record: Rattus norvegicus; test: Potentiation of AMPA receptor mediated KA-induced current in Sprague-Dawley rat primary cerebellar granule neurons at 200 uM
[1] = Potentiation of AMPA receptor mediated KA-induced current in Sprague-Dawley rat primary cerebellar granule neurons
[2] = Extracellular drug level in Sprague-Dawley rat hippocampus at 100 mg/kg, po after 6 hrs; format: ADME, organism-based; parameters: dose 100 mg/kg, route oral; details: hippocampus extracellular fluid, read-out: Drug uptake
[3] = Extracellular drug level in Sprague-Dawley rat hippocampus at 100 mg/kg, po after 4 hrs; format: ADME, organism-based; parameters: dose 100 mg/kg, route oral; details: hippocampus extracellular fluid, read-out: Drug uptake

| SMILES | Activity (Rattus norvegicus) | other results |
| --- | --- | --- |
| Nc1cc(Cl)c(S(N)(=O)=O)cc1S(N)(=O)=O | -6% |  |
| CCCNS(=O)(=O)c1cc(Cl)ccc1N | 4% |  |
| CC1Nc2ccc(Cl)cc2S(=O)(=O)N1 (racemic) | 80% |  |
| CCNS(=O)(=O)c1cc(Cl)ccc1N | 12% |  |
| COc1ccc(S(N)(=O)=O)c(N)c1 | -5% |  |
| CCNc1ccc(Cl)cc1S(N)(=O)=O | 91% |  |
| Nc1cc(Cl)ccc1S(N)(=O)=O | 8% |  |
| Nc1ccc(Cl)cc1S(N)(=O)=O | 23% | pEC50 [1]: 3.55; concentration at 6 h [2]: 8000 ng/mL; concentration at 4 h [3]: 12000 ng/mL |
| Nc1ccc([N+](=O)[O-])cc1S(N)(=O)=O | -8% |  |
| CCCNc1ccc(Cl)cc1S(N)(=O)=O | 80% | pEC50 [1]: 3.87 |
| CC(C)Nc1ccc(Cl)cc1S(N)(=O)=O | 32% |  |
| Nc1cc(Cl)c(Cl)cc1S(N)(=O)=O | 35% |  |
| CNc1ccc(Cl)cc1S(N)(=O)=O | 69% |  |
| Nc1ccccc1S(N)(=O)=O | -5% |  |
| CNS(=O)(=O)c1cc(Cl)ccc1N | 5% |  |
| Cc1cccc(S(N)(=O)=O)c1N | 7% |  |
